# Assay results published in article PMC9284491 (Nature Communications, 2022).
# Assay: Treatment-emergent adverse events (MedDRA, NCI-CTCAE v4.03), safety populations
# Format: in vivo, human
# Conditions: Part B, 400 mg QD (N = 49)
# Description: Overall safety in Parts A and B was assessed by tabulating TEAEs, coded using the Medical Dictionary for Regulatory Activities (MedDRA) version 22.1, and graded according to NCI-CTCAE v4.03 criteria. TEAEs were classified as related or unrelated to amcenestrant therapy based upon the local investigating physician’s clinical judgment. The safety population included all patients exposed to at least one dose of the study treatment. Results were analyzed using descriptive statistics.
structure (smiles),measurement,value
"O=C(O)c1ccc2c(c1)CCCC(c1ccc(Cl)cc1Cl)=C2c1ccc(O[C@H]2CCN(CCCF)C2)cc1 [amcenestrant, 6-(2,4-Dichlorophenyl)−5-[4-[(3S)−1-(3-fluoropropyl)pyrrolidin-3-yl]oxyphenyl]−8,9-dihydro-7H-benzo[7]annulene-2-carboxylic acid]","Back pain, TEAEs, All grades",5 (10.2) n (%)
same,"Back pain, TEAEs, Grade 1",3 (6.1) n (%)
same,"Back pain, TEAEs, Grade 2",2 (4.1) n (%)
same,"Back pain, TEAEs, Grade ≥3",0 n (%)
same,"Back pain, Treatment-related TEAEs, All Grades",0 n (%)
same,"Back pain, Treatment-related TEAEs, Grade 1",0 n (%)
same,"Back pain, Treatment-related TEAEs, Grade 2",0 n (%)
same,"Back pain, Treatment-related TEAEs, Grade ≥3",0 n (%)
same,"Constipation, TEAEs, All grades",14 (28.6) n (%)
same,"Constipation, TEAEs, Grade 1",12 (24.5) n (%)
same,"Constipation, TEAEs, Grade 2",2 (4.1) n (%)
same,"Constipation, TEAEs, Grade ≥3",0 n (%)
same,"Constipation, Treatment-related TEAEs, All Grades",3 (6.1) n (%)
same,"Constipation, Treatment-related TEAEs, Grade 1",2 (4.1) n (%)
same,"Constipation, Treatment-related TEAEs, Grade 2",1 (2.0) n (%)
same,"Constipation, Treatment-related TEAEs, Grade ≥3",0 n (%)
same,"Cough, TEAEs, All grades",4 (8.2) n (%)
same,"Cough, TEAEs, Grade 1",4 (8.2) n (%)
same,"Cough, TEAEs, Grade 2",0 n (%)
same,"Cough, TEAEs, Grade ≥3",0 n (%)
same,"Cough, Treatment-related TEAEs, All Grades",1 (2.0) n (%)
same,"Cough, Treatment-related TEAEs, Grade 1",1 (2.0) n (%)
same,"Cough, Treatment-related TEAEs, Grade 2",0 n (%)
same,"Cough, Treatment-related TEAEs, Grade ≥3",0 n (%)
same,"Decreased appetite, TEAEs, All grades",7 (14.3) n (%)
same,"Decreased appetite, TEAEs, Grade 1",5 (10.2) n (%)
same,"Decreased appetite, TEAEs, Grade 2",2 (4.1) n (%)
same,"Decreased appetite, TEAEs, Grade ≥3",0 n (%)
same,"Decreased appetite, Treatment-related TEAEs, All Grades",2 (4.1) n (%)
same,"Decreased appetite, Treatment-related TEAEs, Grade 1",2 (4.1) n (%)
same,"Decreased appetite, Treatment-related TEAEs, Grade 2",0 n (%)
same,"Decreased appetite, Treatment-related TEAEs, Grade ≥3",0 n (%)
same,"Depression, TEAEs, All grades",3 (6.1) n (%)
same,"Depression, TEAEs, Grade 1",3 (6.1) n (%)
same,"Depression, TEAEs, Grade 2",0 n (%)
same,"Depression, TEAEs, Grade ≥3",0 n (%)
same,"Depression, Treatment-related TEAEs, All Grades",2 (4.1) n (%)
same,"Depression, Treatment-related TEAEs, Grade 1",2 (4.1) n (%)
same,"Depression, Treatment-related TEAEs, Grade 2",0 n (%)
same,"Depression, Treatment-related TEAEs, Grade ≥3",0 n (%)
same,"Diarrhea, TEAEs, All grades",8 (16.3) n (%)
same,"Diarrhea, TEAEs, Grade 1",5 (10.2) n (%)
same,"Diarrhea, TEAEs, Grade 2",2 (4.1) n (%)
same,"Diarrhea, TEAEs, Grade ≥3",1 (2.0) n (%)
same,"Diarrhea, Treatment-related TEAEs, All Grades",1 (2.0) n (%)
same,"Diarrhea, Treatment-related TEAEs, Grade 1",1 (2.0) n (%)
same,"Diarrhea, Treatment-related TEAEs, Grade 2",0 n (%)
same,"Diarrhea, Treatment-related TEAEs, Grade ≥3",0 n (%)
same,"Dry skin, TEAEs, All grades",3 (6.1) n (%)
same,"Dry skin, TEAEs, Grade 1",2 (4.1) n (%)
same,"Dry skin, TEAEs, Grade 2",1 (2.0) n (%)
same,"Dry skin, TEAEs, Grade ≥3",0 n (%)
same,"Dry skin, Treatment-related TEAEs, All Grades",1 (2.0) n (%)
same,"Dry skin, Treatment-related TEAEs, Grade 1",1 (2.0) n (%)
same,"Dry skin, Treatment-related TEAEs, Grade 2",0 n (%)
same,"Dry skin, Treatment-related TEAEs, Grade ≥3",0 n (%)
same,"Dyspnea, TEAEs, All grades",8 (16.3) n (%)
same,"Dyspnea, TEAEs, Grade 1",6 (12.2) n (%)
same,"Dyspnea, TEAEs, Grade 2",2 (4.1) n (%)
same,"Dyspnea, TEAEs, Grade ≥3",0 n (%)
same,"Dyspnea, Treatment-related TEAEs, All Grades",1 (2.0) n (%)
same,"Dyspnea, Treatment-related TEAEs, Grade 1",1 (2.0) n (%)
same,"Dyspnea, Treatment-related TEAEs, Grade 2",0 n (%)
same,"Dyspnea, Treatment-related TEAEs, Grade ≥3",0 n (%)
same,"Edema peripheral, TEAEs, All grades",3 (6.1) n (%)
same,"Edema peripheral, TEAEs, Grade 1",3 (6.1) n (%)
same,"Edema peripheral, TEAEs, Grade 2",0 n (%)
same,"Edema peripheral, TEAEs, Grade ≥3",0 n (%)
same,"Edema peripheral, Treatment-related TEAEs, All Grades",1 (2.0) n (%)
same,"Edema peripheral, Treatment-related TEAEs, Grade 1",1 (2.0) n (%)
same,"Edema peripheral, Treatment-related TEAEs, Grade 2",0 n (%)
same,"Edema peripheral, Treatment-related TEAEs, Grade ≥3",0 n (%)
same,"Fatigue, TEAEs, All grades",12 (24.5) n (%)
same,"Fatigue, TEAEs, Grade 1",8 (16.3) n (%)
same,"Fatigue, TEAEs, Grade 2",2 (4.1) n (%)
same,"Fatigue, TEAEs, Grade ≥3",2 (4.1) n (%)
same,"Fatigue, Treatment-related TEAEs, All Grades",2 (4.1) n (%)
same,"Fatigue, Treatment-related TEAEs, Grade 1",2 (4.1) n (%)
same,"Fatigue, Treatment-related TEAEs, Grade 2",0 n (%)
same,"Fatigue, Treatment-related TEAEs, Grade ≥3",0 n (%)
same,"Gastroesophageal reflux disease, TEAEs, All grades",4 (8.2) n (%)
same,"Gastroesophageal reflux disease, TEAEs, Grade 1",4 (8.2) n (%)
same,"Gastroesophageal reflux disease, TEAEs, Grade 2",0 n (%)
same,"Gastroesophageal reflux disease, TEAEs, Grade ≥3",0 n (%)
same,"Gastroesophageal reflux disease, Treatment-related TEAEs, All Grades",3 (6.1) n (%)
same,"Gastroesophageal reflux disease, Treatment-related TEAEs, Grade 1",3 (6.1) n (%)
same,"Gastroesophageal reflux disease, Treatment-related TEAEs, Grade 2",0 n (%)
same,"Gastroesophageal reflux disease, Treatment-related TEAEs, Grade ≥3",0 n (%)
same,"Headache, TEAEs, All grades",3 (6.1) n (%)
same,"Headache, TEAEs, Grade 1",3 (6.1) n (%)
same,"Headache, TEAEs, Grade 2",0 n (%)
same,"Headache, TEAEs, Grade ≥3",0 n (%)
